For two compounds, IC50 and Ki results are on record in ChEMBL document CHEMBL1149930, “3-Hydroxy-19-nor-17-pregna-1,3,5(10)-triene-21,17-carbolactone as inhibitor of 17-hydroxysteroid dehydrogenase type 2” (Bioorg Med Chem Lett, 1994).

Assay [1] concerns the target T1, 17-beta-hydroxysteroid dehydrogenase type 2 (Homo sapiens, UniProt P37059).
T1 sequence (P37059 whole entry): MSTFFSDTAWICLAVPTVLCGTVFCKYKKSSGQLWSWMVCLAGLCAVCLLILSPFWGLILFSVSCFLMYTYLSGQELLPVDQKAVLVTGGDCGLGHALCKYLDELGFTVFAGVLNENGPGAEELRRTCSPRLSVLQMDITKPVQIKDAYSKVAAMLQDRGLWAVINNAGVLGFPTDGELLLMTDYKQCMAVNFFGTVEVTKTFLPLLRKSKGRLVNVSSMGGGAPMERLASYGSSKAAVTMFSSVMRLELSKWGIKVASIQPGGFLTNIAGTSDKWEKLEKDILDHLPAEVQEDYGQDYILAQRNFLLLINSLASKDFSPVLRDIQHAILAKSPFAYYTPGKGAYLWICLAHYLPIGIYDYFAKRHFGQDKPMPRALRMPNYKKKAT
Put plainly: Inhibitory activity against human placenta 17-beta-hydroxysteroid dehydrogenase type 2 (17-beta-HSD type 2).

The target of assay [2] is T1, 17-beta-hydroxysteroid dehydrogenase type 2. The experiment in a line: Inhibitory constant against human placenta 17-beta-hydroxysteroid dehydrogenase type 2 (17-beta-HSD type 2).

As to `C[C@]12CC[C@@H]3c4ccc(O)cc4CC[C@H]3[C@@H]1CC[C@@]21CCC(=O)O1`, in assay [1], half-maximal inhibition (IC50) required 270 nM. The compound further yielded a Ki in assay [2] of 250 nM.

As to `C[C@]12CCC3C4=CCC(=O)C=C4CCC3C1CC[C@@]21CCC(=O)O1` (stereo partly drawn), in assay [1], half-maximal inhibition (IC50) required 1410 nM.

The term IC50 denotes the midpoint of a concentration-inhibition curve. Lower therefore signals inhibition by little substance. Usually Ki stands for a measure of affinity in units of concentration, obtained from inhibition or displacement. High values mean lower affinity, low ones higher affinity.
